Measurements from patent US20210052512A1, “CANNABIDIOL PREPARATIONS AND ITS USES” (GW Research Limited, priority 2018, published 2021).

Legend:
[1] = test system: MES-induced tonic seizures; experiment: Maximal electroshock seizure (MES) test; format: in vivo, mice; settings: for HED - mg (human equivalent dose): converted to HED of 10 mg/kg, assuming 60 kg human
Protocol: This study was performed using male C57Bl6 mice, weighing between 23.6-31.2 g, which were purchased from a licensed breeder (Charles River, UK). Naïve mice were acclimatized to the procedure room in their home cages, with food and water available ad libitum. Animals were housed in groups of 2-3, in standard caging on a 12 hr/12 hr light-dark cycle. All animals were tail marked and weighed at the beginning of the study. Animals were randomly assigned to vehicle or treatment groups.
The following drugs were used in this study: synthetic CBD (SYN) and botanically derived purified CBD (BOT). The control vehicle used was (1:1:18), which was 5% Ethanol, 5% Kolliphor, 90% saline, and has been used extensively throughout similar seizure tests. All drugs were dissolved in the control vehicle for comparison. Animals were dosed (10 ml/kg) i.p. at 60 minutes prior to the administration of the maximal electroshock seizure (MES) test. In addition to the vehicle group, the dosage groups used for each treatment and included doses of 10, 50, 100 (Experiment 1 only), 150 and 200 mg/kg for CBD (SYN) and CBD (BOT). The number of animals in each of these groups were 10 (n=10).
Two separate experiments were undertaken using two different batches of the botanically derived purified CBD. In the first experiment the concentration of THC in botanically derived purified CBD was 0.02% THC (w/w) whereas in the second experiment the concentration of THC in the botanically derived purified CBD was approximately 0.1% THC (w/w).
The protective activity of CBD (SYN) and CBD (BOT) was evaluated and expressed as effective doses (ED50 in mg/kg), protecting 50% of mice against MES-induced tonic seizures. Electroconvulsions were produced by a fixed current intensity of 30 mA and corneally delivered electroshock (0.2 second duration). Mice were individually assessed for seizures following this pre-determined high level (30 mA) corneally delivered electroshock of sufficient intensity to reliably produce tonic hind limb extension seizures in 100% of control animals. […]

[2] = test system: human iPSC derived cerebral cortical neural stem/progenitor cells (hNSCs); experiment: Axonal outgrowth and neuronal differentiation of hNSCs (GAP43 immunocytochemistry); format: cell-based; settings: 1 μM
Protocol: Human iPSC-derived cerebral cortical neural stem cells (hNSCs) (Axol Bioscience Inc., UK) were cultured as monolayers at a density of 1.0×10^4 cells/cm^2 on 100 mm diameter Petri dishes. The cells were collected from their original cryovial, suspended in Plating-XF Medium and plated on Petri dishes coated with SureBondXF 1× working solution prepared in D-PBS (without calcium or magnesium). hNSCs were incubated at 37° C. and 5% CO2 and 24 hours after of incubation, the plating medium was replaced with fresh Neural Expansion-XF Medium supplemented with the growth factors Recombinant Human EGF and Recombinant Human FGF2 (final concentration of 20 ng/mL (1×) of FGF2 and EGF). The cultures were re-fed with fresh Neural Expansion-XF supplemented with EGF and FGF2 every two days. When the hNSCs reached approximately 80% confluence, they were prepared for treatment. Pre-warmed Axol Unlock-XF was used to detach the cells and after 3 minutes of incubation the cells were re-suspended in Neural Expansion-XF Medium supplemented with EGF and FGF2. The cells (1×10^4 cells/cm^2) were then plated in Petri dishes coated with SureBondXF 1× and after 2 hours the medium was replaced with fresh Neural Expansion-XF supplemented with EGF and FGF2. […]

[3] = test system: human iPSC derived cerebral cortical neural stem/progenitor cells (hNSCs); experiment: Neurogenesis and neuronal differentiation of hNSCs (MAP2+ cell count, immunohistochemistry); format: cell-based; settings: for Mean % MAP2+ cells (3 days): 3 days incubation; for Mean % MAP2+ cells (3 days) / Mean % MAP2+ cells (5 days): hNSCs; for Mean % MAP2+ cells (5 days): 5 days incubation
Protocol: Human iPSC-derived cerebral cortical neural stem cells (hNSCs) (Axol Bioscience Inc., UK) were cultured as monolayers at a density of 1.0×10^4 cells/cm^2 on 100 mm diameter Petri dishes. The cells were collected from their original cryovial, suspended in Plating-XF Medium and plated on Petri dishes coated with SureBondXF 1× working solution prepared in D-PBS (without calcium or magnesium). hNSCs were incubated at 37° C. and 5% CO2 and 24 hours after of incubation, the plating medium was replaced with fresh Neural Expansion-XF Medium supplemented with the growth factors Recombinant Human EGF and Recombinant Human FGF2 (final concentration of 20 ng/mL (1×) of FGF2 and EGF). The cultures were re-fed with fresh Neural Expansion-XF supplemented with EGF and FGF2 every two days. When the hNSCs reached approximately 80% confluence, they were prepared for treatment. Pre-warmed Axol Unlock-XF was used to detach the cells and after 3 minutes of incubation the cells were re-suspended in Neural Expansion-XF Medium supplemented with EGF and FGF2. The cells (1×10^4 cells/cm^2) were then plated in Petri dishes coated with SureBondXF 1× and after 2 hours the medium was replaced with fresh Neural Expansion-XF supplemented with EGF and FGF2.
hNSCs cultured as described above were plated at a density of 1×10^4 cells/cm^2 on SureBondXF-coated coverslips in the presence of botanically derived purified CBD; synthetic CBD; or vehicle diluted in the Neural Differentiation-XF Medium (DM, without growth factors) for 3-5 days at 37° C. in a 5% CO2/95% air atmosphere.
Cannabinoids were dissolved in 95% (v/v) ethanol and added to the medium to obtain final concentrations of 0.1 or 1 μM CBD.
Ethanol was added to the vehicle-treated cells for the whole differentiation period of 3-5 days wherein the final concentration was never higher than 0.05% (v/v).
In order to perform immunohistochemistry, the cells were fixed with 4% (w/v) paraformaldehyde. Nonspecific binding was blocked with 10% (v/v) fetal bovine serum and 0.1% (v/v) Triton X-100 and incubated with primary antibodies: mouse anti-Map2ab (Sigma-Aldrich; 1:200) and rabbit anti-GFAP (DAKO; 1:200) or rabbit anti-Gap43 (Synaptic System; 1:300 at room temperature for 4 hours. Secondary antibodies—anti-mouse Alexa594 (Life Technologies; 1:100) and anti-rabbit Alexa488 (Life Technologies; 1:100)—were used for immunofluorescence. Cells were then counterstained with DAPI, washed with PBS and cover slipped with Aquatex mounting medium (Merck, Darmstadt, Germany). The immunofluorescence was studied with an epifluorescence microscope (Leica AF6000) equipped with the appropriate filter and then acquired using a digital camera (Leica, DFC 340) connected to the microscope and image analysis software (Leica, LAS AF). No immunoreactivity was found in the samples processed for the control of specificity of each primary antibody used in the study, which was performed by omitting the primary antibody before adding the appropriate secondary antibody.
Digital Leica LAS AF 2.2.0 software (Live Data Mode system) was used for counting Map2ab+DAPI+ cells. […] For each experimental condition, cells from 3 different tubes were each analyzed in triplicate and 3 frames were collected at 20× magnification. Data were analyzed with GraphPad Prism 6 software, version 6.05 (GraphPad, Inc.) and are expressed as mean±SEM. Statistical differences among groups were determined by two-way ANOVA followed by post hoc Bonferroni tests for comparison among means. […]

[4] = test system: sub-chronic PCP-induced deficit in novel object recognition; experiment: Novel object recognition (NOR) test after sub-chronic PCP; format: in vivo, rats
Protocol: Female hooded-Lister rats were used for this experiment. Rats were housed in groups of 5 under standard laboratory conditions under a 12 hr light: dark cycle, with lights on at 0700 hr. Testing was carried out in the light phase. Rats were randomly assigned to two treatment groups and treated with vehicle, n=20 (distilled water, i.p.) or Phencyclidine hydrochloride (PCP), n=100 (2 mg/kg, i.p. twice daily for 7-days). PCP was dissolved in distilled water. This was followed by a 7-day wash out period before the rats were tested following acute treatment with CBD, risperidone or vehicle.
Risperidone (0.1 mg/kg) was dissolved in a minimum volume of acetic acid, made up to volume with distilled water and pH adjusted to 6 with 0.1M NaOH and administered via the i.p. route in a volume of 1 ml/kg, 120 minutes prior to testing.
Botanically derived purified CBD was tested at 2, 10, 20 or 100 mg/kg and was dissolved in 2:1:17 (Ethanol:Cremofor:Saline 0.9%) and administered via the i.p. route in a volume of 5 ml/kg, 60 minutes prior to testing. The THC concentration in the botanically derived purified CBD was 0.03% (w/w) THC.
Synthetic CBD at 1, 2, 5, 10 or 20 mg/kg was dissolved in 2:1:17 (Ethanol:Cremofor:Saline 0.9%) and administered via the i.p. route in a volume of 5 ml/kg, 120 minutes prior to testing.
Rats were allowed to habituate to the empty test box and the behavioral test room environment for one hour on day 1. Prior to behavioral testing on day 2, rats were given a further 3 minute habituation.
Following the 3 minute habituation period, the rats are given two 3 minute trials (T1 and T2) which were separated by a 1 minute inter-trial interval in the home cage during which the objects were changed. Behavior in all trials was recorded on video for subsequent blind scoring.
In the acquisition trial (T1), the animals were allowed to explore two identical objects (A1 and A2) for 3 minutes. In the retention trial (T2), the animals were allowed to explore a familiar object (A) from T1 and a novel object (B) for 3 minutes. […]
The exploration time(s) of each object (A, B, familiar and novel) in each trial were recorded using two stopwatches and the following factors were calculated: total exploration time of both objects in the acquisition trial, total exploration time of both objects in the retention trial. Habituation of exploratory activity included the exploration time, as measured by the number of lines crossed, for both trials.
All data were assessed for normality using D'Agostino and Pearson normality test. Data non-normally distributed were analyzed using Kruskal-Wallis followed by planned comparisons with Dunn's correction. Normally distributed data were analyzed using one-way ANOVA followed by planned comparisons with Sidak's correction. […]

Q: How did the “HED - mg (human equivalent dose)” value ([1]; Experiment 1) turn out when `C=C(C)[C@@H]1CCC(C)=C[C@H]1c1c(O)cc(CCCCC)cc1O` [Synthetic CBD, 2-[(1R,6R)-3-Methyl-6-(1-methylethenyl)-2-cyclohexen-1-yl]-5-pentyl-1,3-benzenediol] was run?
A: 600.0 mg

Q: What about the “ED50 protecting 50% of mice against MES-induced tonic seizures” value ([1]; Experiment 1, i.p. 60 minutes prior to MES, sigmoidal curve - constant top, listed as CBD (SYN)) of the same compound?
A: 77.60 mg/kg

Q: What about the “HED - mg (human equivalent dose)” value ([1]; Experiment 2) of the same compound?
A: 600.0 mg

Q: And the “Mean % GAP43+ cells (3 days)” value ([2]; 3 days incubation)?
A: 8.40 ± 2.0%

Q: What about the “Mean % GAP43+ cells (5 days)” value ([2]; 5 days incubation) of the same compound?
A: 9.15 ± 1.6%

Q: And the “Mean % MAP2+ cells (3 days)” value ([3]; 0.1 μM)?
A: 4.87 ± 0.1%

Q: What about the “Mean % MAP2+ cells (5 days)” value ([3]; 0.1 μM) of the same compound?
A: 6.02 ± 0.3%

Q: What about the “Mean % MAP2+ cells (3 days)” value ([3]; 1 μM) of the same compound?
A: 6.11 ± 0.3%

Q: What about the “Mean % MAP2+ cells (5 days)” value ([3]; 1 μM) of the same compound?
A: 7.09 ± 0.1%

Q: What about the “Effect on neurogenesis and neuronal differentiation of hNSCs (in words)” value ([3]; 0.1 and 1 μM, 3 or 5 days, relative to vehicle-treated cells) of the same compound?
A: did not have a significant effect

Q: What about the “human daily amount equivalent to the rat MED” value ([4]; 70 kg human) of the same compound?
A: 112 mg/day

Q: What about the “amount of CBD required in a human relative to botanically derived purified CBD” value ([4]; from difference in MED) of the same compound?
A: five times the amount of CBD

Q: And the “human equivalent dose of the rat MED” value ([4]; rat dose multiplied by 0.16 (FDA dose conversion guidance))?
A: 1.6 mg/kg/day

Q: And the “minimal effective dose (MED) attenuating sub-chronic PCP-induced deficit in novel object recognition” value ([4]; rats, i.p., 120 min ppt)?
A: 10 mg/kg
